From patent publication US9920383B2, “Active substances for increasing the stress defense in plants to abiotic stress, and methods of finding them” (Bayer Intellectual Property GMBH, priority 2005, dated 2018)

Legend:
Format in all cases: in vivo, maize cv. Lorenzo
Details in all cases: vs unstressed solvent-dressed control
[1] = tested on: Zm12587.1.S1.s_at: glycosyltransferase; assay: Gene expression profiling (maize genome array), heat stress
Protocol: (§1) Maize seeds cv. Lorenzo were dressed as described in example 1 with the compound VIII-3 (=4-cyclopropylaminocarbonyl-N-(2-methoxybenzoyl)benzenesulfonamide) or with solvent. The plants were raised for 10 days in a controlled-environment chamber (conditions: see example 1).
(§2) Thereafter, the plants were exposed to the following stress conditions: • (1) Heat stress: 6 h at 45° C. • (2) Drought stress: 7 days without irrigation, 24° C.
(§3) The control plants of the specific experimental group were kept under the standard conditions described in example 1 (temperature, irrigation).
(§4) After the stress treatment, the leaves of the stressed plants and of the unstressed control plants were harvested, shock-frozen in liquid nitrogen and stored at −80° C. until processed. All experiments were carried out in replications of in each case 2 pots.
(§5) The labeled RNA probes for the DNA chip hybridization were prepared as described in the protocols (Expression Analysis. Technical Manual) from Affymetrix (Affymetrix Inc., 3380 Central Expressway, Santa Clara, Calif., USA). First, total RNA was isolated from in each case 500 mg of the harvested leaves. In each case 10 μg of total RNA were used for the cDNA first- and second-strand synthesis. The cDNA was amplified with T7 polymerase and simultaneously labeled with biotin-UTP. In each case 20 μg of this biotinylated […] were employed for the hybridization of the maize genome array from Affymetrix. This DNA microarray contains DNA sequences whose totality represents 13339 genes. Thereafter, the DNA microarrays were washed in the Affymetrix Fluidics Station, stained with streptavidin/phycoerythrin (Molecular Probes, P/N S-866) and scanned with the appropriate Agilent Laser Scanner (Agilent Gene Array Scanner). The fluorescence data obtained were analyzed using Affymetrix's Microarray Suite 5 software. After the quality assurance had been performed, all DNA chip analyses were stored in a database. To determine relevant expression values (induction factors, repression factors), the absolute expression values of the genes from the respective stress experiments were compared with the values of the respective control experiments (i.e. without abiotic stress and solvent-dressing only), based on the scoring function predetermined by the Affymetrix software. The resulting 4 expression values per gene were averaged by calculating the median value. These median values are shown in the results tables as induction factors. Similarity comparisons of expression profiles of various experiments and cluster analyses were carried out using the “genedata expressionist” software from Genedata (Genedata, Maulbeerstr. 46, CH-4016 Basel, Switzerland).
(§6) The analysis of the expression profiles specifically searched for genes which are induced by the test substances only in conjunction with abiotic stress, but not by the substances or by stress alone. Such genes can be considered as indicators for additional anti-stress effects of the substances which exceed the known safener effect. The induction patterns of the indicator genes described permit the targeted finding of active substances for increasing the abiotic stress tolerance in crop plants. • a) Under heat stress conditions, i.e. the tested maize plants (dressed with 2 mg a.i. 4-cyclopropylaminocarbonyl-N-(2-methoxybenzoyl)benzenesulfonamide/g seeds) were exposed to a temperature of 45° C. for 6 hours 7 days after germination.
(§7) • Condition A: heat stress (6 hours, 45° C.) • Condition B: Seeds dressed with 4-cyclopropylaminocarbonyl-N-(2-methoxybenzoyl)benzenesulfonamide (VIII-3)/NO heat stress • Condition C: Seeds dressed with 4-cyclopropylaminocarbonyl-N-(2-methoxybenzoyl)benzenesulfonamide (VIII-3)+heat stress (6 hours, 45° C.).

[2] = tested on: Zm.11840.1.A1_at: putative N-carbamyl-L-amino acid amidohydrolase; assay: as above
Protocol: as §1, §2, §3, §4, §5, §6, §7

[3] = tested on: Zm.3040.1.S1_at uricase II (E.C.1.7.3.3); nodule specific uricase; assay: as above
Protocol: as §1, §2, §3, §4, §5, §6, §7

[4] = tested on: Zm.13498.1.S1_at: membrane protein; assay: as above
Protocol: as §1, §2, §3, §4, §5, §6, §7

[5] = tested on: Zm.4274.1.S1_at: cytochrome P450; assay: as above
Protocol: as §1, §2, §3, §4, §5, §6, §7

[6] = tested on: Zm18994.2.A1_at: putative serine transferase; assay: as above
Protocol: as §1, §2, §3, §4, §5, §6, §7

[7] = tested on: Zm.3633.4.A1_at wound induced protein (fragment); assay: Gene expression profiling (maize genome array), drought stress
Protocol: as §1, §2, §3, §4, §5
(§8) The induction patterns derived from table 5 and which are shown directly by the resulting expression values show characteristic inductions by the action of the compound 4-cyclopropylaminocarbonyl-N-(2-methoxybenzoyl)benzenesulfonamide (=VIII-3), the effect on the putative N-carbamyl-L-amino acid amidohydrolase [Zm.11840.1.A1_at] and on the putative serine carboxypeptidase [Zm18994.2.A1-at] being most pronounced. • b) Under dried stress conditions, i.e. the tested maize plants (dressed with 2 mg a.i. 4-cyclopropylaminocarbonyl-N-(2-methoxybenzoyl)benzenesulfonamide/g seeds) were exposed to a temperature of 24° C. for 7 hours 7 days after germination.
as §7, with “drought” for “heat”, “(7 days, 24°” for “(6 hours, 45°”, “(VIII-3)+drought” for “(VIII-3)+heat”

[8] = tested on: Zm.18682.1.A1_at unknown protein; assay: as above
Protocol: as §1, §2, §3, §4, §5, §8
as §7, with “drought” for “heat”, “(7 days, 24°” for “(6 hours, 45°”, “(VIII-3)+drought” for “(VIII-3)+heat”

[9] = tested on: Zm.18273.1.S1_at regulatory protein-like; assay: as above
Protocol: as §1, §2, §3, §4, §5, §8
as §7, with “drought” for “heat”, “(7 days, 24°” for “(6 hours, 45°”, “(VIII-3)+drought” for “(VIII-3)+heat”

[10] = tested on: Zm.10097.1.A1_at expressed protein; assay: as above
Protocol: as §1, §2, §3, §4, §5, §8
as §7, with “drought” for “heat”, “(7 days, 24°” for “(6 hours, 45°”, “(VIII-3)+drought” for “(VIII-3)+heat”

[11] = tested on: Zm.13229.1.S1_at NBS-LRR type disease resistance protein O2 (fragment); assay: as above
Protocol: as §1, §2, §3, §4, §5, §8
as §7, with “drought” for “heat”, “(7 days, 24°” for “(6 hours, 45°”, “(VIII-3)+drought” for “(VIII-3)+heat”

[12] = tested on: Zm.12035.1.A1_at similar to AT3G10120; assay: as above
Protocol: as §1, §2, §3, §4, §5, §8
as §7, with “drought” for “heat”, “(7 days, 24°” for “(6 hours, 45°”, “(VIII-3)+drought” for “(VIII-3)+heat”

[13] = tested on: Zm.818.1.A1_at universal stress protein; assay: as above
Protocol: as §1, §2, §3, §4, §5, §8
as §7, with “drought” for “heat”, “(7 days, 24°” for “(6 hours, 45°”, “(VIII-3)+drought” for “(VIII-3)+heat”

[14] = seeds dressed with VIII-3 (2 mg a.i./g seeds), NO heat stress
[15] = seeds dressed with VIII-3 + heat stress (6 hours, 45° C.)
[16] = seeds dressed with VIII-3 (2 mg a.i./g seeds), NO drought stress
[17] = seeds dressed with VIII-3 + drought stress (7 days, 24° C.)

COc1ccccc1C(=O)NS(=O)(=O)c1ccc(C(=O)NC2CC2)cc1 [VIII-3, 4-cyclopropylaminocarbonyl-N-(2-methoxybenzoyl)benzenesulfonamide]
induction factor Zm12587.1.S1.s_at, Condition B [1, 14]: 1.45 | induction factor Zm12587.1.S1.s_at, Condition C [1, 15]: 2.33 | induction factor Zm.11840.1.A1_at, Condition B [2, 14]: 1.75 | induction factor Zm.11840.1.A1_at, Condition C [2, 15]: 4.10 | induction factor Zm.3040.1.S1_at, Condition B [3, 14]: 1.33 | induction factor Zm.3040.1.S1_at, Condition C [3, 15]: 2.48 | induction factor Zm.13498.1.S1_at, Condition B [4, 14]: 1.73 | induction factor Zm.13498.1.S1_at, Condition C [4, 15]: 4.45 | induction factor Zm.4274.1.S1_at, Condition B [5, 14]: 1.22 | induction factor Zm.4274.1.S1_at, Condition C [5, 15]: 1.93 | induction factor Zm18994.2.A1_at, Condition B [6, 14]: 1.46 | induction factor Zm18994.2.A1_at, Condition C [6, 15]: 2.66 | induction factor Zm.3633.4.A1_at, Condition B [7, 16]: 0.74 | induction factor Zm.3633.4.A1_at, Condition C [7, 17]: 3.03 | induction factor Zm.18682.1.A1_at, Condition B [8, 16]: 1.12 | induction factor Zm.18682.1.A1_at, Condition C [8, 17]: 4.19 | induction factor Zm.18273.1.S1_at, Condition B [9, 16]: 0.95 | induction factor Zm.18273.1.S1_at, Condition C [9, 17]: 2.91 | induction factor Zm.10097.1.A1_at, Condition B [10, 16]: 1.27 | induction factor Zm.10097.1.A1_at, Condition C [10, 17]: 3.29 | induction factor Zm.13229.1.S1_at, Condition B [11, 16]: 1.02 | induction factor Zm.13229.1.S1_at, Condition C [11, 17]: 3.39 | induction factor Zm.12035.1.A1_at, Condition B [12, 16]: 0.90 | induction factor Zm.12035.1.A1_at, Condition C [12, 17]: 3.66 | induction factor Zm.818.1.A1_at, Condition B [13, 16]: 1.12 | induction factor Zm.818.1.A1_at, Condition C [13, 17]: 8.47
